For 53 molecules, EC50 results are on record in PubChem BioAssay AID1959 (Broad Institute, 2009).

SMILES strings stand for the structures. Calls of active or inactive are those of the source.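 How the source made its calls: active means growth-inhibition EC50 no more than tenfold above the top tested dose; inconclusive means flat fit between 30% and 70% inhibition, or unreliable fit; inactive means EC50 more than tenfold above the top tested dose.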

One may read the EC50 as the concentration giving half of the maximal effect.

For this assay, the system named is E. coli NEB5alpha growth, BacTiter-Glo luminescence, 4 h. In words: antibacterial activity against E. coli NEB5alpha – luminescence, counter-screen for MEX-5/POS-1 RNA-binding inhibitor project, dose response (AID 1959).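 Further: pUC19-transformed ampicillin-resistant cells grown in LB with ampicillin.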
In the case of `CCOCCCNC(=O)CCC(=O)NNc1nc2ccccc2c2nc(C)nn12`, the EC50 is > 11 µM (inactive).

On to `COC(=O)c1ccc(-n2c(C)cc(C(=O)COC(=O)CC3Sc4ccccc4NC3=O)c2C)cc1` (stereo not drawn), for which the EC50 was > 11 µM (inactive).

Consider `Cc1cccc(C)c1NC(=O)NN=C1CCCCC1`, for which the EC50 is > 11 µM (inactive).

Turning to `CCCCOC(=O)CSC1=C(C#N)C(c2ccccc2OCC)C(C#N)C(=O)N1` (stereo not drawn), the EC50 was > 11 µM (inactive).

Turning to `O=C(N/N=C/c1cc(Cl)cc([N+](=O)[O-])c1O)c1ccccc1NS(=O)(=O)c1cccs1`, the EC50 was > 11 µM (inactive).

Turning to `CCCCc1ccc(/C=C2\C(=O)ON=C2c2ccccc2)s1`, the EC50 is > 11 µM (inactive).

Regarding `O=C1NC(=S)N(c2ccccc2)C(=O)/C1=C/c1ccco1`, the EC50 was > 11 µM (inactive).

Take `COc1ccccc1NC(=S)NNC(=O)c1cc(C)n(C)n1`: the EC50 was > 11 µM (inactive).

On to `COC(=O)Cn1cc(/C=C2\C(=O)NC(=O)N(c3ccc(OC)cc3)C2=O)c2ccccc21`, for which the EC50 was > 11 µM (inactive).

Turning to `COC(=O)c1c(C(=O)OC)c2n(c1C)Cc1ccccc1C2`, the EC50 is > 11 µM (inactive).

Consider `Nc1nonc1C(=O)NCCN=Cc1cc(Cc2ccccc2)cc(Br)c1O`, for which the EC50 is > 11 µM (inactive).

For `CCCCC1(C)OC(=O)C(=Cc2ccc(N(CC)CC)cc2)C(=O)O1` (stereo not drawn), the EC50 was > 11 µM (inactive).

On to `O=[N+]([O-])c1ccc(C2=Nc3cc(Cl)ccc3OC2)cc1`, for which the EC50 was > 11 µM (inactive).

With `O=c1cc(-c2ccc(O)c(O)c2)oc2cc(O)cc(O)c12`, the EC50 is > 11 µM (inactive).

For the molecule `CC(=O)Oc1oc(-c2ccccc2)nc1C=Nc1ccc(N(C)C)cc1`, the EC50 was > 11 µM (inactive).

Consider `O=C(Cc1nc2ccccc2[nH]c1=O)c1ccccc1`, for which the EC50 was > 11 µM (inactive).

As for `Cn1ncc2c(NNC(=O)c3ccc(O)cc3)ncnc21`, the EC50 was > 11 µM (inactive).

For `Cc1cccc(N2C(=O)/C(=C/c3ccc(N4CCN(C)CC4)o3)C(=O)NC2=S)c1C`, the EC50 was > 11 µM (inactive).

As for `COC(=O)c1ccc(-n2c(C)ccc2-c2ccccc2)cc1`, the EC50 was > 11 µM (inactive).

Consider `NC(=O)Cn1cc(C=C2C(=O)NC(=O)NC2=O)c2ccccc21`, for which the EC50 is > 11 µM (inactive).

For `COc1ccc2nc3cc(Cl)ccc3c(Nc3cc(CN4CCCC4)c(O)c(CN4CCCC4)c3)c2n1`, the EC50 was > 11 µM (inactive).

As for `Cc1cnc(C(=O)NNC(=O)c2ccc(Br)cc2)cn1`, the EC50 was > 11 µM (inactive).

Regarding `Fc1ccc(NCc2cccnc2)cc1F`, the EC50 was > 11 µM (inactive).

For `CN(C)CCCN=Cc1c(O)n(CCc2ccc(F)cc2)c(=O)[nH]c1=O`, the EC50 is > 11 µM (inactive).

In the case of `Cc1cc(C(=O)O)ccc1-n1c(C)ccc1C`, the EC50 is > 11 µM (inactive).

On to `NC(=O)c1ccsc1N`, for which the EC50 is > 11 µM (inactive).

As for `Nc1c(O)ccc2c1C(=O)c1ccccc1C2=O`, the EC50 was > 11 µM (inactive).

Take `CN(C)CCCN(C(=O)/C=C/c1cccs1)c1nc2ccc(F)cc2s1`: the EC50 was > 11 µM (inactive).

For `CCCCCCn1c(=O)[nH]c2nc3cc(N)ccc3nc2c1=O`, the EC50 is > 11 µM (inactive).

With `O=C(O)c1cccc(-n2cccc2/C=C\[N+](=O)[O-])c1`, the EC50 was > 11 µM (inactive).

On to `CC1=C(C(=O)OCc2ccccc2)C(c2ccccc2[N+](=O)[O-])NC(=O)N1C` (stereo not drawn), for which the EC50 was > 11 µM (inactive).

Turning to `CCCc1c(O)nc(SCC(=O)N2CCCCC2)[nH]c1=O`, the EC50 is > 11 µM (inactive).

With `O=C(O)c1ccccc1N(c1ccccc1)c1ccccc1`, the EC50 is > 11 µM (inactive).

In the case of `Oc1cccc(/C=N/N=C/c2cccc(O)c2O)c1O`, the EC50 is > 11 µM (inactive).

With `Oc1ccc(/C=N/N2CCCCC2)c(O)c1O`, the EC50 is > 11 µM (inactive).

`COc1ccc(-c2onc3ccc(C(C)=O)cc23)cc1`: the EC50 is > 11 µM (inactive).

On to `CC1(C)CCCN(C(=O)c2coc(=O)c(Br)c2)C1`, for which the EC50 is > 11 µM (inactive).

Regarding `CCCN1C(=O)c2cccc3c(N4CCCCC4)ccc(c23)C1=O`, the EC50 is > 11 µM (inactive).

Consider `Cc1ccc(/C=C2\C(=O)NC(=S)N(c3cccc(F)c3)C2=O)o1`, for which the EC50 was > 11 µM (inactive).

In the case of `COc1ccc2c(c1)C1C=CCC1C(c1cc3c(cc1Br)OCO3)N2` (stereo not drawn), the EC50 is > 11 µM (inactive).

Regarding `COCCN1CCC(CNCc2cn[nH]c2-c2ccc(C)c(C)c2)C1` (stereo not drawn), the EC50 is > 11 µM (inactive).

`CN1C(=O)NC(c2ccccc2[N+](=O)[O-])C2=C1CCCC2=O` (stereo not drawn): the EC50 is > 11 µM (inactive).

Take `CCN(CC)c1ccc(/C=N/NC(=O)c2ccco2)c(O)c1`: the EC50 was > 11 µM (inactive).

In the case of `COc1ccc(CCn2c(O)c(/C=N/NC(=O)c3ccncc3)c(=O)[nH]c2=O)cc1OC`, the EC50 was > 11 µM (inactive).

For `Oc1ccc(/C=N/Nc2ccc(Cl)nn2)c(O)c1O`, the EC50 is > 11 µM (inactive).

With `CCC(C)/C=C(C)/C=C/C1=CC2=C(Cl)C(=O)C(C)(OC(C)=O)C(=O)C2=CO1` (stereo not drawn), the EC50 is > 11 µM (inactive).

Take `O=S(=O)(c1ccccc1)N1CCC(O)(CSc2ccc(Cl)cc2)CC1`: the EC50 was > 11 µM (inactive).

As for `CCCCC1=CC2=CC(=O)C(C)(OC(=O)CC)C(=O)C2=CO1` (stereo not drawn), the EC50 was > 11 µM (inactive).

Take `Cc1ccc(Nc2ccc([N+](=O)[O-])ccc2=O)cc1`: the EC50 is > 11 µM (inactive).

On to `O=C(N/N=C/c1c(O)n(CCc2ccc(F)cc2)c(=O)[nH]c1=O)c1ccccc1`, for which the EC50 is > 11 µM (inactive).

`CCOC(=O)Cc1nc2ccccc2n(CC#N)c1=O`: the EC50 was > 11 µM (inactive).

Regarding `COc1cc(C2C(C#N)=C(N)OC3=C2C(=O)CCC3)cc(OC)c1OC(=O)N1CCOCC1` (stereo not drawn), the EC50 was > 11 µM (inactive).

`C=CCn1c(O)c(/C=C/C=Nc2ccccc2)c(=O)[nH]c1=O`: the EC50 was > 11 µM (inactive).
